Source: patent US20260231944A1, “ANTISEPTIC CONDITIONING FORMULATIONS” (THOMMES MEDICAL AG, priority 2023, published 2026)

Columns and labels:
[1] = tested on: Human periodontal ligament fibroblasts (HPDLF); experiment: cell viability of human primary cells after antiseptics in T. buffer, AlamarBlue assay; format: cell-based
Method: Human periodontal ligament fibroblasts (HPDLF) were used in this study as test system, imitating closer the in vivo situation. The fibroblasts were purchased from ATCC and cultured in ScienCell FM medium, supplemented with 2% fetal bovine serum, 1% fibroblast growth factor and 1% penicillin-streptomycin (Sigma-Aldrich, Switzerland) in T75 flasks at 37° C. and 5% CO2.
To study the effect of antiseptic substances, at concentrations that are currently used in marketed products, the vitality of HPDLF cells was assessed. […] As a control, cells were incubated with T. buffer without antiseptic agent. Three replicate wells per concentration were tested. After 1 minute of incubation at 37°, the supernatant was removed and the wells were washed once with 600 μl of the fresh medium. Thereafter, cells were incubated with 600 µL of the fresh medium containing 0.015 mg/ml AlamarBlue dye, for 4 hours at 37° C. Finally, 100 μL of the medium were removed from each well and transferred to a new 96-well plate and the absorbance was measured using a BioTek microplate reader (test wavelength: 570 nm; reference wavelength: 630 nm).
After the incubation with the antiseptic agents, the metabolic activity was measured using an AlamarBlue assay (after 4 h).

[2] = precipitation test of PHMB and CHX in alkaline buffers (visual inspection/visible clouding); format: physicochemical

Method for L929 murine fibroblasts: Mouse fibroblasts (L929 cell line) were used in this study as recommended cell line for cytotoxicity testing in accordance with EN ISO 10993-5.
The fibroblasts were purchased from ATCC and cultured in Dulbecco's Modified Eagle Medium-high glucose, supplemented with 10% fetal bovine serum and 1% penicillin-streptomycin (Sigma-Aldrich, Switzerland) in T75 flasks at 37° C. and 5% CO2. For the performance of the cytotoxicity experiments, L929 cells were seeded onto 96-well cell culture plates, 100 μ/well, at a density of 1×10^6 cells/mL to reach about 80% confluence after 24 hours.
After 60 minutes of incubation at 37°, the medium was removed and the wells were washed once with 100 μl of the fresh medium.
Thereafter, cells were incubated with 100 μL of the fresh medium containing 0.015 mg/ml AlamarBlue dye, for 2 hours at 37° C.
Finally, 100 μL of the media were removed from each well and transferred to a new 96-well plate and the absorbance was measured using a BioTek microplate reader (test wavelength: 570 nm; reference wavelength: 630 nm).
In order to test the cytocompatibility of alkaline buffers, a similar experiment was performed. However, the alkaline buffers were incubated for 10 minutes instead of 60 minutes. […]
After the incubation time, the metabolic activity, used as an indirect marker for cytotoxicity, was measured with an AlamarBlue assay. […]

C[S+](C)[O-] [DMSO]
cell viability ([1]; 5% DMSO (negative control)): low cell viability

[Na+].[OH-] [sodium hydroxide]
metabolic activity (AlamarBlue) (L929 murine fibroblasts): significant reduction in metabolic activity

[H]/N=C(\N/C(=N/[H])NCCCCCCNC(=N)NC(=N)Nc1ccc(Cl)cc1)Nc1ccc(Cl)cc1 [CHX, 1,6-bis(4-chloro-phenylbiguanido)hexane]
precipitation ([2]; CHX 0.06% in 0.05 M NaOH/0.05 M glycine, pH 11.06): precipitation occurs
precipitation ([2]; CHX 0.06% in 0.05 M NaOH/0.1 M glycine, pH 9.9): no precipitation
cell viability ([1]; CHX 0.06 and 0.12% in T. buffer, 1 minute): Low cell viability
